Results as given in US9833497B2, “Human originated EGF domain proteins and use of the same” (CHENGDU SOURCEBIO LIMITED-LIABILITY COMPANY, priority 2013, dated 2017).

Legend:
Type in all cases: cell-based
E. coli DH5α = experiment: Antibacterial activity: MIC and growth curve against E. coli DH5α in 96-well plate; details: minimal inhibitory concentration against E. coli DH5α; 96-well plate, 5×10^5 CFU/mL, 37° C., judged after 8 h
Method: 1. E. coli DH5α was exemplified. E. coli DH5α was streaked and cultured on LB solid medium. Then, a typical clone was picked and inoculated into common LB liquid medium, cultured at 37° C. with shaking at 185 rpm until the logarithmic growth phase was reached (OD600 of about 0.5). The bacterial culture was centrifuged at 4000×g for 3 min, the supernatant was discarded, and the thalli were resuspended with fresh LB medium.
2. The above-mentioned bacterial suspension was diluted and inoculated into a 96-well plate with the total volume of 100 μL per well and a bacterial count of 5×10^5 CFU/mL.
3. The recombinant protein hF VII-EGF1 was added to the above-mentioned wells with the final protein concentration in the well of the highest protein concentration being 50 μg/mL. Basing on this final concentration, a two-fold serial dilution was performed till a protein concentration gradient consisting of 50, 25, and 12.5 μg/mL was set up. Three parallel wells were set up for each concentration in the gradient.
4. The above-mentioned 96-well plate was placed and cultured at 37° C. in shaking incubator shaking at 175 rpm. Samples were taken every 30 min, the absorbance values were determined at 600 nm wavelength under a ultra violet spectrophotometer, and an inhibition curve was plotted. […] The minimal inhibitory concentration MIC is defined as the lowest concentration of the recombinant protein at which there is no growth of the bacteria.
According to the experimental procedures in Example 14, the minimal inhibitory concentrations (MIC, μg/mL) of the other human-originated EGF domain proteins (PRT2 to PRT1498 in Table 1) for E. coli DH5α were determined.

E. coli BL21 = experiment: MIC against Gram-negative bacteria: E. coli BL21; details: 96-well plate, 5×10^5 CFU/mL, 37° C., 10 h
Method: (§1) 1. Gram-negative bacteria, such as E. coli BL21, Pseudomonas aeruginosa, Klebsiella pneumonia, Enterobacter cloacae, Aeromonas hydrophila, Citrobacter diversus, Moraxella catarrhalis, Proteus mirabilis, Proteus vulgaris, Serratia marcescens, etc were streaked on solid LB medium and cultured respectively. Then, typical clones were picked, inoculated into common liquid LB medium respectively, and cultured at 37° C. with shaking at 185 rpm until the McFarland specific turbidity was 0.5. The bacterial culture of each of Gram-negative bacteria was centrifuged at 4000×g for 3 min, the supernatant was discarded, and the thalli were resuspended with fresh LB medium.
(§2) 2. The above-mentioned bacterial suspensions were diluted and inoculated into 96-well plates with the final concentration of the bacterial suspension being 5×10^5 CFU/mL per well.
(§3) 3. Each of the purified human-originated EGF domain proteins (PRT1 to PRT1498 in Table 1) was added to each of the above wells and subjected to two-fold serial dilution in concentration. Three parallel wells were set up for each concentration in the gradient.
(§4) 4. The above-mentioned 96-well plates were placed and cultured at 37° C. in shaking incubator shaking at 175 rpm. […] The minimal inhibitory concentration MIC is defined as the lowest concentration of the recombinant protein at which there is no growth of the bacteria.

Pseudomonas aeruginosa = experiment: MIC against Gram-negative bacteria: Pseudomonas aeruginosa; details: 96-well plate, 5×10^5 CFU/mL, 37° C., 10 h
Method: as §1, §2, §3, §4

Klebsiella pneumonia = experiment: MIC against Gram-negative bacteria: Klebsiella pneumonia; details: 96-well plate, 5×10^5 CFU/mL, 37° C., 10 h
Method: as §1, §2, §3, §4

Enterobacter cloacae = experiment: MIC against Gram-negative bacteria: Enterobacter cloacae; details: 96-well plate, 5×10^5 CFU/mL, 37° C., 10 h
Method: as §1, §2, §3, §4

Aeromonas hydrophila = experiment: MIC against Gram-negative bacteria: Aeromonas hydrophila; details: 96-well plate, 5×10^5 CFU/mL, 37° C., 10 h
Method: as §1, §2, §3, §4

Citrobacter diversus = experiment: MIC against Gram-negative bacteria: Citrobacter diversus; details: 96-well plate, 5×10^5 CFU/mL, 37° C., 10 h
Method: as §1, §2, §3, §4

Moraxella catarrhalis = experiment: MIC against Gram-negative bacteria: Moraxella catarrhalis; details: 96-well plate, 5×10^5 CFU/mL, 37° C., 10 h
Method: as §1, §2, §3, §4

Proteus mirabilis = experiment: MIC against Gram-negative bacteria: Proteus mirabilis; details: 96-well plate, 5×10^5 CFU/mL, 37° C., 10 h
Method: as §1, §2, §3, §4

Proteus vulgaris = experiment: MIC against Gram-negative bacteria: Proteus vulgaris; details: 96-well plate, 5×10^5 CFU/mL, 37° C., 10 h
Method: as §1, §2, §3, §4

Serratia marcescens = experiment: MIC against Gram-negative bacteria: Serratia marcescens; details: 96-well plate, 5×10^5 CFU/mL, 37° C., 10 h
Method: as §1, §2, §3, §4

Substance | MIC (E. coli DH5α) | MIC E. coli BL21 (E. coli BL21) | MIC P. aeruginosa (Pseudomonas aeruginosa) | MIC K. pneumonia (Klebsiella pneumonia) | MIC E. cloacae (Enterobacter cloacae) | MIC A. hydrophila (Aeromonas hydrophila) | MIC C. diversus (Citrobacter diversus) | MIC M. catarrhalis (Moraxella catarrhalis) | MIC P. mirabilis (Proteus mirabilis) | MIC P. vulgaris (Proteus vulgaris) | MIC S. marcescens (Serratia marcescens) | MIC against E. coli BL21 (E. coli BL21) | MIC against P. aeruginosa (Pseudomonas aeruginosa) | MIC against K. pneumonia (Klebsiella pneumonia) | MIC against E. cloacae (Enterobacter cloacae) | MIC against A. hydrophila (Aeromonas hydrophila) | MIC against C. diversus (Citrobacter diversus) | MIC against M. catarrhalis (Moraxella catarrhalis) | MIC against P. mirabilis (Proteus mirabilis) | MIC against P. vulgaris (Proteus vulgaris) | further results
PRT625 (CNCSGRSEECTFDRELFRSTGHGGRCHHCRDHTAGPHCERCQENFYHWDPRMPCQP; listed as Homo sapiens) | 12.5 µg/mL | 25 µg/mL | 12.5 µg/mL | 25 µg/mL | 50 µg/mL | 25 µg/mL | 12.5 µg/mL | 25 µg/mL | 50 µg/mL | 25 µg/mL | 12.5 µg/mL | – | – | – | – | – | – | – | – | – | –
PRT491 (LDICSKNPCHNGGLCEEISQEVRGDVFPSYTCTCLKGYAGNHCE; listed as Homo sapiens) | 12.5 µg/mL | – | – | – | – | – | – | – | – | – | – | 25 µg/mL | 50 µg/mL | 12.5 µg/mL | 50 µg/mL | 100 µg/mL | 50 µg/mL | 12.5 µg/mL | 50 µg/mL | 25 µg/mL | MIC against S. marcescens (Serratia marcescens): 12.5 µg/mL
PRT560 (GSCHPAGLAPVDPALPEAQVPCMCRAHVEGPSCDRCKPGFWGLSPSNPEGCTR; listed as Homo sapiens) | 12.5 µg/mL | – | – | – | – | – | – | – | – | – | – | 25 µg/mL | 50 µg/mL | 25 µg/mL | 50 µg/mL | 25 µg/mL | 50 µg/mL | 25 µg/mL | 50 µg/mL | 50 µg/mL | MIC against S. marcescens (Serratia marcescens): 50 µg/mL
PRT654 (DVNECMGEEHCAPHGECLNSHGSFFCLCAPGFVSAEGGTSCQ; listed as Homo sapiens) | 12.5 µg/mL | 50 µg/mL | 12.5 µg/mL | 50 µg/mL | 12.5 µg/mL | 50 µg/mL | 12.5 µg/mL | 50 µg/mL | 25 µg/mL | 12.5 µg/mL | 25 µg/mL | – | – | – | – | – | – | – | – | – | –
PRT66 (DDNICLREPCENYMKCVSVLRFDSSAPFLSSTTVLFRPIHPINGLRCRCPPGFTGDYCE; listed as Homo sapiens) | 12.5 µg/mL | – | – | – | – | – | – | – | – | – | – | – | – | – | – | – | – | – | – | – | MIC (μg/mL) E. coli BL21 (E. coli BL21; E. coli BL21): 12.5 µg/mL; MIC (μg/mL) P. aeruginosa (Pseudomonas aeruginosa; Pseudomonas aeruginosa): 12.5 µg/mL; MIC (μg/mL) K. pneumonia (Klebsiella pneumonia; Klebsiella pneumonia): 12.5 µg/mL; MIC (μg/mL) E. cloacae (Enterobacter cloacae; Enterobacter cloacae): 12.5 µg/mL; MIC (μg/mL) A. hydrophila (Aeromonas hydrophila; Aeromonas hydrophila): 12.5 µg/mL; MIC (μg/mL) C. diversus (Citrobacter diversus; Citrobacter diversus): 25 µg/mL; MIC (μg/mL) M. catarrhalis (Moraxella catarrhalis; Moraxella catarrhalis): 12.5 µg/mL; MIC (μg/mL) P. mirabilis (Proteus mirabilis; Proteus mirabilis): 25 µg/mL; MIC (μg/mL) P. vulgaris (Proteus vulgaris; Proteus vulgaris): 12.5 µg/mL; MIC (μg/mL) S. marcescens (Serratia marcescens; Serratia marcescens): 25 µg/mL
